Measurements taken from patent US8853246B2 (Dow AgroSciences LLC, priority 2009, dated 2014).
Where two headings read alike, the source gives them in different places.

What was measured:
[1] = tested on: Sweetpotato Whitefly-Crawler (Bemisia Tabaci); assay: Insecticidal test for sweetpotato whitefly-crawler in foliar spray assay (col. BEMITA); type: in vivo; details: Bemisia tabaci, read-out: BEMITA 200 ppm (Corrected % Control, rating)
In short: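 Cotton plants (one 3-5 cm true leaf) infested with whitefly eggs (100-300/plant), held 5-6 days at 82° F, 50% RH until crawlers developed. Sprayed to runoff at 200 ppm (acetone stock diluted in 0.025% Tween 20), four plants per treatment. Live nymphs counted after 8-9 days; % control by Abbott's correction versus solvent check.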

[2] = tested on: Green Peach Aphid (Myzus Persicae); assay: Insecticidal test for green peach aphid in foliar spray assay (col. MYZUPE); type: in vivo; details: Myzus persicae, 72 h, read-out: MYZUPE 200 ppm (Corrected % Control, rating)
In short: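 Cabbage seedlings with 2-3 true leaves, infested with 20-50 wingless adult and nymph aphids one day earlier, sprayed to runoff at 200 ppm (acetone/methanol stock diluted in 0.025% Tween 20), four pots per treatment. After 3 days at ~25 °C, 40% RH, live aphids counted; corrected % control versus solvent-sprayed plants.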

Compound | melting point | pest or weed control at 200 ppm ([1]; sweetpotato whitefly-crawler) | pest or weed control at 200 ppm ([2]; green peach aphid) | pest or weed control at 200 ppm ([1]; Abbott's correction formula) | pest or weed control at 200 ppm ([2]; Abbott's correction formula)
CCc1cc(C(=O)Nc2sc(-c3cccnc3)nc2C)no1 [Compound 387] | 129 to 130 °C | 80 to 100% | < 80% | – | –
CCS(=O)(=O)N1CCCC(C(=O)Nc2sc(-c3cccnc3)nc2C)C1 (stereo not drawn) [Compound 388] | 190 to 194 °C | 80 to 100% | 80 to 100% | – | –
Cc1nc(-c2cccnc2)sc1NC(=O)Cn1nc(C)c(S(=O)(=O)N(C)C)c1C [Compound 389] | 214 to 215 °C | < 80% | < 80% | – | –
Cc1nn(CC(=O)N(C)c2sc(-c3cccnc3)nc2Cl)c(C)c1S(=O)(=O)N(C)C [Compound 390] | 185 to 186 °C | 80 to 100% | < 80% | – | –
CCCNC(=O)N(C)c1sc(-c2cccnc2)nc1C [Compound 391] | 150 to 151 °C | 80 to 100% | 80 to 100% | – | –
CN(C(=O)CC[S+](C)[O-])c1sc(-c2cncc(F)c2)nc1F (stereo not drawn) [Compound 392] | 113 to 116 °C | 80 to 100% | 80 to 100% | – | –
CCOC(=O)c1nc(-c2cccnc2)sc1NC(=O)C(C)CSC (stereo not drawn) [Compound 395] | 93 to 101 °C | < 80% | < 80% | – | –
Cc1nc(-c2cccnc2)sc1N(C)C(=S)Nc1ccc(Cl)cc1 [Compound 398] | 53 to 54 °C | 80 to 100% | < 80% | – | –
CSCCC(=O)Nc1sc(-c2cncc(F)c2)nc1Cl [Compound 421] | 153 to 154 °C | < 80% | 80 to 100% | – | –
CC(C)(C)OC(=O)N(C(=O)OC(C)(C)C)c1cnc(-c2cccnc2)s1 [Compound 422] | 114 to 117 °C | < 80% | 80 to 100% | – | –
CCNC(=S)N(C)c1sc(-c2cccnc2)nc1C [Compound 449] | 137 to 140 °C | – | – | 80 to 100% | 80 to 100%
CN(C(=O)CC[S+](C)[O-])c1sc(-c2cncc(F)c2)nc1Br (stereo not drawn) [Compound 454] | 170 to 173 °C | – | – | 80 to 100% | 80 to 100%
CN(C(=O)CCS(C)(=O)=O)c1sc(-c2cncc(F)c2)nc1Br [Compound 455] | 198 to 201 °C | – | – | 80 to 100% | 80 to 100%
CS(=O)(=O)CCC(=O)Nc1sc(-c2cncc(F)c2)nc1Cl [Compound 459] | 239 to 240 °C | – | – | < 80% | 80 to 100%
CN(C(=O)CCS(C)(=O)=O)c1sc(-c2ccc(F)nc2)nc1Cl [Compound 470] | 42 to 46 °C | – | – | < 80% | 80 to 100%
CC(C[S+](C)[O-])C(=O)N(C)c1sc(-c2cnc(Cl)c(F)c2)nc1Cl (stereo not drawn) [Compound 474] | 30 to 35 °C | – | – | < 80% | < 80%
CC(CS(C)(=O)=O)C(=O)N(C)c1sc(-c2cnc(Cl)c(F)c2)nc1Cl (stereo not drawn) [Compound 475] | 55 to 61 °C | – | – | < 80% | < 80%
CN(C(=O)OC(C)(C)C)c1sc(-c2cncc(F)c2)nc1Cl [Compound 476] | 119 to 120 °C | – | – | < 80% | 80 to 100%
CC(C)(C)OC(=O)Nc1sc(-c2cccnc2)nc1F [Compound 478] | 184 to 186 °C | – | – | < 80% | 80 to 100%
CC(C)(C)OC(=O)Nc1sc(-c2cncc(F)c2)nc1I [Compound 481, tert-butyl 2-(5-fluoropyridin-3-yl)-4-iodothiazol-5-yl carbamate] | 148 to 149 °C | – | – | < 80% | < 80%
